Test results from patent US4370340A, “Benzothiazol-2-one-3-alkanoic acids and esters and aldose reductase inhibiting compositions thereof” (Fujisawa Pharmaceutical Co., Ltd., priority 1979, dated 1983).

These compounds were tested against T1, rabbit lens aldose reductase (Oryctolagus cuniculus, UniProt P15122) (assay: Inhibitory effect on rabbit lens aldose reductase). Conditions: not given.
T1 construct: aldose reductase prepared from rabbit lens; from tissue; host or cells: rabbit lens
Assay type: biochemical

Compound | IC50 [nM]
O=C(O)Cn1c(=O)sc2cc(Cl)ccc21 [compound 12] | 410

Same assay, conditions: aldose reductase prepared from rabbit lens; graphically calculated from inhibitory effect at various concentrations; read-out: 50% Inhibitory concentration (IC50)

Compound | IC50 [nM]
O=C(O)Cn1c(=O)sc2cc(Oc3ccccc3)ccc21 [Test Compound 3, 2-Oxo-6-phenoxy-3-benzothiazolineacetic acid] | 690
O=C(O)Cn1c(=O)sc2c(Cl)c(-c3ccccc3)ccc21 [Test Compound 5, 2-Oxo-6-phenyl-7-chloro-3-benzothiazolineacetic acid] | 120
O=C(O)CN1C(=O)C(=O)c2ccc(Cl)cc21 [Test Compound 13, 2,3-dioxo-6-chloro-1-indolineacetic acid] | 300
O=C(O)Cn1c(=O)sc2cc(Oc3ccccc3Cl)ccc21 [compound 4] | 270
O=C(O)Cn1c(=O)oc2cc(-c3ccccc3)c(Cl)cc21 [compound 7] | 49
O=C(O)CN1C(=O)Cc2ccc(Cl)cc21 [compound 9] | 270
O=C(O)Cn1c(=O)oc2ccc(Cl)cc21 [compound 11] | 250
Cc1cc2c(cc1-c1ccccc1)sc(=O)n2CC(=O)O [compound 14] | 33

Continued, values first:

IC50 [nM] | Compound
50 | O=C(O)Cn1c(=O)sc2cc(Oc3ccccc3)c(Cl)cc21 [Test Compound 1, 2-Oxo-5-chloro-6-phenoxy-3-benzothiazolineacetic acid]
140 | O=C(O)Cn1c(=O)sc2cc(C3CCCCC3)c(Cl)cc21 [Test Compound 6, 2-Oxo-5-chloro-6-cyclohexyl-3-benzothiazolineacetic acid]
50 | O=C(O)Cn1c(=O)sc2cc(Br)c(Cl)cc21 [Test Compound 8, 2-Oxo-5-chloro-6-bromo-3-benzothiazolineacetic acid]
200 | O=C(O)Cn1c(=O)sc2ccc(Cl)cc21 [Test Compound 10, 2-Oxo-5-chloro-3-benzothiazolineacetic acid]
38 | O=C(O)Cn1c(=O)sc2cc(Cl)c(Cl)cc21 [Test Compound 15, 2-Oxo-5,6-dichloro-3-benzothiazolineacetic acid]
29 | O=C(O)Cn1c(=O)sc2cc(-c3ccccc3)c(Cl)cc21 [compound 2]
120 | O=C(O)Cn1c(=O)sc2cc([N+](=O)[O-])c(Cl)cc21 [compound 16]
100 | Nc1cc2sc(=O)n(CC(=O)O)c2cc1Cl [compound 17]
